Reference: patent US9212130B2, “Heterocyclic derivative and pharmaceutical composition comprising the same” (SHIONOGI & CO., LTD., priority 2010, dated 2015)

Legend:
[1] = Bioavailability (BA) test; assay type: in vivo; conditions: plasma; Mice or SD rats; oral 0.3 to 30 mg/kg vs intravenous 0.5 to 10 mg/kg; from AUCs
Protocol: Materials and Methods for Experiment of BA
• (1) Animals: Mice or SD rats were used • (2) Breeding conditions: Mice or SD rats were allowed to freely take solid food and sterilized tap water. • (3) Dose and grouping: orally or intravenously administered at a predetermined dose; grouping was as follows (Dose depends on the compound) Oral administration: 0.3 to 30 mg/kg (n=2 to 3) Intravenous administration: 0.5 to 10 mg/kg (n=2 to 3) • (4) Preparation of dosing solution: for oral administration, in a solution or a suspension state; for intravenous administration, in a solubilized state • (5) Administration method: in oral administration, forcedly administer into ventriculus with oral probe; in intravenous administration, administer from caudal vein with a needle-equipped syringe • (6) Evaluation items: blood was collected over time, and the plasma concentration of drug was measured by LC/MS/MS • (7) Statistical analysis: regarding the transition of the plasma concentration of the present compound, the area under the plasma concentration-time curve (AUC) was calculated by non-linear least squares program WinNonlin (Registered trade name), and the bioavailability (BA) was calculated from the AUCs of the oral administration group and intravenous administration group

CYP1A2 = CYP1A2 (Homo sapiens (Human), UniProt P05177); experiment: CYP inhibition test, 7-ethoxyresorufin O-deethylation; assay type: in vitro ADME; conditions: pooled human hepatic microsome; 0.5 μmol/L ethoxyresorufin; given as 'five kinds'
Protocol: (§1) Using commercially available pooled human hepatic microsome, and employing, as markers, 7-ethoxyresorufin O-deethylation (CYP1A2), tolbutamide methyl-hydroxylation (CYP2C9), mephenyloin 4′-hydroxylation (CYP2C19), dextromethorphan O-demethylation (CYP2D6), and terfenedine hydroxylation as typical substrate metabolism reactions of human main five ([…] enzyme forms (CYP1A2, 2C9, 2C19, 2D6, 3A4), an inhibitory degree of each metabolite production amount by a test compound was assessed.
(§2) The reaction conditions were as follows: substrate, 0.5 μmol/L ethoxyresorufin (CYP1A2), 100 μmol/L tolbutamide (CYP2C9), 50 μmol/L S-mephenitoin (CYP2C19), 5 μmol/L dextromethorphan (CYP2D6), 1 μmol/L terfenedine (CYP3A4); reaction time, 15 minutes; reaction temperature, 37° C.; enzyme, pooled human hepatic microsome 0.2 mg protein/mL; test drug concentration, 1.0. 5.0, 10, 20 μmol/L (four points).
(§3) Each five kinds of substrates, human hepatic microsome, or a test drug in 50 mmol/L Hepes buffer as a reaction solution was added to a 96-well plate at the composition as described above. NADPH, as a cofactor was added to initiate metabolism reactions as markers and, after the incubation at 37° C. for 15 minutes, a methanol/acetonitrile=1/1 (v/v) solution was added to stop the reaction. After the centrifugation at 3000 rpm for 15 minutes, resorufin (CYP1A2 metabolite) in the supernatant was quantified by a fluorescent multilabel counter and tributamide hydroxide (CYP2CP metabolite), mephenyloin 4′ hydroxide (CYP2C19 metabolite), […], and terfenadine alcohol (CYP3A4 metabolite) were quantified by LC/MS/MS.
(§4) Addition of only DMSO being a solvent dissolving a drug to a reaction system was adopted as a control (100%), remaining activity (%) was calculated at each concentration of a test drug added as the solution and IC50 was calculated by reverse presumption by a logistic model using a concentration and an inhibition rate.

Solubility test = assay type: physicochemical; conditions: artificial intestinal juice (phosphate buffer) with 1% DMSO, 25 °C, other biorelevant, kinetic from dmso stock, artificial intestinal juice in pH 8.8, 25 degrees Celsius for 16 hours
Protocol: The solubility of a compound was determined under a condition in which 1% DMSO was added. 10 mmol/L compound solution was prepared using DMSO, and then 6 μL of the compound solution was added to 594 μL of artificial intestinal juice in […] (to 250 mL of 0.2 mol/L potassium dihydrogen phosphate reagent solution was added 118 mL of 0.2 mol/L NaOH reagent solution and water to provide a final volume of 1000 mL). After standing at 25 degrees Celsius for 16 hours, the mixed solution was filtrated with suction. The filtrate was diluted twice with methanol/water (1/1) and then a concentration in the filtration was measured with HPLC or LC/MS/MS by the absolute calibration method.

CYP3A4 = CYP3A4 (Homo sapiens (Human), UniProt P08684); experiment: CYP inhibition test, terfenedine hydroxylation; assay type: in vitro ADME; conditions: pooled human hepatic microsome; 1 μmol/L terfenedine; given as 'five kinds'
Protocol: as §1, §2, §3, §4

human P2X3 receptor = human P2X3 receptor (Homo sapiens (Human), UniProt P56373); experiment: Evaluation of human P2X3 receptor inhibitory activity (ATP-induced Fluo-3 fluorescence, FDSS 3000); assay type: cell-based; conditions: C6BU-1 cell transfected with human P2X3 receptor gene
How it was run: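 Human P2X3 inhibition read as ATP-evoked Fluo-3 calcium fluorescence; compound preincubated, then 50 nM ATP solution (concentration as dispensed) added and fluorescence followed 3 min. Response taken as peak-to-baseline fluorescence ratio per well; IC50 derived from concentration–response.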

CYP2C9 = CYP2C9 (Homo sapiens (Human), UniProt P11712); experiment: CYP inhibition test, tolbutamide methyl-hydroxylation; assay type: in vitro ADME; conditions: pooled human hepatic microsome; 100 μmol/L tolbutamide; given as 'five kinds'
Protocol: as §1, §2, §3, §4

[2] = Metabolism stability test (pooled human hepatic microsomes); assay type: in vitro ADME; conditions: human liver microsomes 0.5 mg protein/mL; 37° C., 30 minutes; 1 mmol/L NADPH; compound concentration 0.5 μmol/L
Protocol: Using commercially available pooled human hepatic microsomes, a test compound was reacted for a constant time, a remaining rate was calculated by comparing a reacted sample and an unreacted sample, thereby, a degree of metabolism in liver was assessed.
A reaction was performed (oxidative reaction) at 37° C. for 0 minute or 30 minutes in the presence of 1 mmol/L NADPH in 0.2 mL of a buffer (50 mmol/L tris-HCl pH 7.4, 150 mmol/L potassium chloride, 10 mmol/L magnesium chloride) containing 0.5 mg protein/mL of human liver microsomes. After the reaction, 50 μL of the reaction solution was added to 100 μL of a methanol/acetonitrile 1/1 (v/v), mixed and centrifuged at 3000 rpm for 15 minutes. The test compound in the supernatant was quantified by LC/MS/MS, and a remaining amount of the test compound after the reaction was calculated, letting a compound amount at 0 minute reaction time to be 100%.

CYP1A2, sequence (P05177 whole entry): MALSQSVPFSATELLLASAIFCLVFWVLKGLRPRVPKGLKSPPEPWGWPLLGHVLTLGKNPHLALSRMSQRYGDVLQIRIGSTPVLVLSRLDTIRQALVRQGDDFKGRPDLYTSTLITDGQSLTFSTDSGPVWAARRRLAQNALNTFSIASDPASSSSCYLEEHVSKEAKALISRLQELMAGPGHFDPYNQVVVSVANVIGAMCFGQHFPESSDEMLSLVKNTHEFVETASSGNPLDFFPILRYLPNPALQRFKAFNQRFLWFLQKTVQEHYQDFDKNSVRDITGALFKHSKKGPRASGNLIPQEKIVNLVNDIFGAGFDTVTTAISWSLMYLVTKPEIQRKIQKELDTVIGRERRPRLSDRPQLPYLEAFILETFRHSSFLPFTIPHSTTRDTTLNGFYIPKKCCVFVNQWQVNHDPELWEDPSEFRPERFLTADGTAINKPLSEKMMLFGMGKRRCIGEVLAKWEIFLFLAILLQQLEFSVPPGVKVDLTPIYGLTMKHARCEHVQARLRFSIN
human P2X3 receptor, sequence (P56373 whole entry): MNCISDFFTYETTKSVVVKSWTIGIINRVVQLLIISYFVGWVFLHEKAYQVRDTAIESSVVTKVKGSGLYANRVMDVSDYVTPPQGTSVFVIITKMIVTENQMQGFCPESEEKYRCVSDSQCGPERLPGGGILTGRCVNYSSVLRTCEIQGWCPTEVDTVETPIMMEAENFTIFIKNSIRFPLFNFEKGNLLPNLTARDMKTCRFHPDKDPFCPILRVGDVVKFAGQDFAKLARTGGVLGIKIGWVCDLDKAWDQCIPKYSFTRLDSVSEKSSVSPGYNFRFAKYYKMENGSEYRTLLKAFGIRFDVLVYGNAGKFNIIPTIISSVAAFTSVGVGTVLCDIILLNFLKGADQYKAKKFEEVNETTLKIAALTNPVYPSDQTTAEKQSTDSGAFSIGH
CYP3A4, sequence (P08684 whole entry): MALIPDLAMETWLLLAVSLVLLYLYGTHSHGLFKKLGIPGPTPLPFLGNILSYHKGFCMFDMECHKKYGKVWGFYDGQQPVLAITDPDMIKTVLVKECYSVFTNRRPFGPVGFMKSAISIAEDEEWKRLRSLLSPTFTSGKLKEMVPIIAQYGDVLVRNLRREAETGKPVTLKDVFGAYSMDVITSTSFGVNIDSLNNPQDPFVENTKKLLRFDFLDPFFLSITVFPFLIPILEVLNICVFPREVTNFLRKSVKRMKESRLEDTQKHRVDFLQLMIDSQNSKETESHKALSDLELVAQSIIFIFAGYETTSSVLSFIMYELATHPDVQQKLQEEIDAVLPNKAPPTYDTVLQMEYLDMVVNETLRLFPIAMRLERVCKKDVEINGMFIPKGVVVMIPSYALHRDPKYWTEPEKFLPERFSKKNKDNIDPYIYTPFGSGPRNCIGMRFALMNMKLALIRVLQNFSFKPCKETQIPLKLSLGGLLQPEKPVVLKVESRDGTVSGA
CYP2C9, sequence (P11712 whole entry): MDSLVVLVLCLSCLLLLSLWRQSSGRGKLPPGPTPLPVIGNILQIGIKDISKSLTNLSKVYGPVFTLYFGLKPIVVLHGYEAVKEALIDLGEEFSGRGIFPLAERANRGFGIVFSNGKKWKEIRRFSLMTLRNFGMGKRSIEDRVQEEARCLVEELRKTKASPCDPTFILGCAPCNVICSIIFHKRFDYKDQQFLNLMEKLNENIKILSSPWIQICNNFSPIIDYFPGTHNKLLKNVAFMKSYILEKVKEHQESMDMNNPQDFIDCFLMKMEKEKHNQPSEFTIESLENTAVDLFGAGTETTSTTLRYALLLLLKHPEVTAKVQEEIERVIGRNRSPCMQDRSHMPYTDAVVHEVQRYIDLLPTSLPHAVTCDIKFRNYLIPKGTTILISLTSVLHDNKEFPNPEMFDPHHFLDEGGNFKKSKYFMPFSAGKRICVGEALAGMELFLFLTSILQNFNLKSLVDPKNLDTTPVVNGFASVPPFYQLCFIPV

`CC(C)Oc1ccc(Nc2cc(=O)n(C[C@H](C)C(=O)O)c(=O)n2Cc2ccc(Cl)cc2)cc1Cl` [I-100] gave a bioavailability [1] of 29.2%, an IC50 (CYP1A2) greater than 20 µM and a solubility at 16 h (Solubility test) greater than 50 µM. For the same molecule, the IC50 (CYP3A4) was greater than 20 µM, the IC50 (human P2X3 receptor) was 0.009 µM and the IC50 (CYP2C9) was greater than 20 µM. It also gave a remaining rate [2] of 101%.
